Measured values reported in patent publication US20230099344A1, “COMPOUNDS AND METHODS FOR THE TARGETED DEGRADATION OF IRAK-4” (Arvinas Operations, Inc., priority 2021, published 2023).

Assays:
Type in all cases: cell-based
[1] = test system: IL6; assay: IL-1β stimulated IL6 inhibition assay in PBMC; conditions: human PBMCs, IL-1β stimulation, compound overnight, IL6 by MSD after 24 hrs; for IC50: read-out: IL1β stim IL6 inhibition IC50; for Emax: read-out: IL1β stim IL6 inhibition Ymax
Protocol: (§1) IL-1β, LPS, or R848 Stimulated IL6 Inhibition and IL-1β Stimulated IL8 Inhibition Assay
(§2) Human PBMC cells were seeded at 2.0×10^6 cells/mL, treated with compound overnight, and dosed with the EC50 concentration of each stimulant (either IL-1B. LPS, or R848) was determined for each donor. After 24 hrs, media was collected and analyzed by MSD for IL6 and/or IL8 levels.

[2] = target: T1, IRAK-4 (Homo sapiens, UniProt Q9NWZ3); assay: IRAK-4 ELISA, PBMC degradation; design: endogenous in cells; host or cells: PBMC; conditions: treated overnight
T1 sequence (Q9NWZ3 1-460): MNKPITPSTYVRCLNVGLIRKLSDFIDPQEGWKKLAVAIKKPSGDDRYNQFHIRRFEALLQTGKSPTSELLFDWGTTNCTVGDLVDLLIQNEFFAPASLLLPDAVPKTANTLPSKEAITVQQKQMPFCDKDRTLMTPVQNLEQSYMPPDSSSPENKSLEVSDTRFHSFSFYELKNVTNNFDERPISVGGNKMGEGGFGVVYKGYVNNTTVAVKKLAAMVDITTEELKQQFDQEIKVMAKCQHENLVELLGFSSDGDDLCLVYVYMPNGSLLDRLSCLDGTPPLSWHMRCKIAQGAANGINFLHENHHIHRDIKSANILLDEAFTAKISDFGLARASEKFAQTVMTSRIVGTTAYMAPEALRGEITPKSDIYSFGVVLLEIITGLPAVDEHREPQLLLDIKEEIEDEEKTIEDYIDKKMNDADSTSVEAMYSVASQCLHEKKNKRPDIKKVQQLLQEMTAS
Procedure, shortened: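 OCI-Ly10 cells (1×10^6/ml) or PBMC (2×10^6/ml) treated with compound on the day of seeding and incubated overnight. IRAK-4 protein remaining in cell lysates quantified by sandwich ELISA.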

[3] = test system: IL8; assay: IL-1β stimulated IL8 inhibition assay in PBMC; conditions: human PBMCs, IL-1β stimulation, compound overnight, IL8 by MSD after 24 hrs; for IC50: read-out: IL1β stim IL8 inhibition IC50; for Emax: read-out: IL1β stim IL8 inhibition Ymax
Protocol: as §1, §2

[4] = target: T1, IRAK-4; assay: IRAK-4 ELISA, OCI-Ly10 degradation; design: endogenous in cells; conditions: treated overnight; for Dmax: OCI-Ly10, OCI-Ly10 cells; for DC50: OCI-Ly10 cells
Protocol: Reagents: Human IRAK-4 Matched Antibody Pair Kit (Abcam ab218182) and ELISA Accessory Pack (Abcam ab210905).
Cell Treatment and Lysis:
1. OCI-Ly10: 200,000 cells are seeded at 1×10^6/ml in 96-well U-bottom plates 200 ul per well, treated with compound the same day. Incubate overnight. 2. PBMC: 800,000 cells are seeded at 2×10^6/ml in 96-well U-bottom deep-well plates, 400 ul per well, treated with compound the same day. Incubate overnight.
Cell lysate is collected and analyzed by ELISA for IRAK-4 levels.

[5] = test system: IL6; assay: LPS stimulated IL6 inhibition assay in PBMC; conditions: Homo sapiens, PBMC, 24 h, human PBMCs, LPS stimulation, compound overnight, IL6 by MSD after 24 hrs; for Dmax: read-out: LPS Stim IL6 inhibition Dmax; for IC50: read-out: LPS stim IL6 inhibition IC50
Procedure, shortened: (§3)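 Read-out: MSD quantification of IL6 or IL8 in media collected 24 hrs after stimulation. Human PBMCs (2.0×10^6 cells/mL) received compound overnight before stimulant dosing at an EC50 concentration determined per donor.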

[6] = test system: IL6; assay: R848 stimulated IL6 inhibition assay in PBMC; conditions: PBMC, human PBMCs, R848 stimulation, compound overnight, IL6 by MSD after 24 hrs; for Dmax: Homo sapiens, 24 h, read-out: R848 stim IL6 inhibition Dmax; for IC50: read-out: R848 stim IL6 inhibition IC50
Procedure, shortened: as §3

Row | SMILES | IC50 ([1]; Homo sapiens, PBMC, 24 h) [nM] | Emax ([1]; PBMC) [%] | DC50 [2] [nM] | Dmax [2] [%] | PBMC DC90 [2] | IC50 [3] [nM] | Emax [3] [%] | Dmax [4] [%] | DC50 [4] [nM] | IC50 [1] [nM] | Dmax [5] [%] | IC50 [5] [nM] | Dmax [6] [%] | IC50 [6] [nM]
1 | CC(C)Oc1cc2c(cc1NC(=O)c1cnn3cccnc13)CN(C1CCN(CC3CCN(c4ccc5c(c4)CN(C4CCC(=O)NC4=O)C5=O)CC3)CC1)C2=O (centres unmarked) [Example 6] | < 10 | ≥ 90 | < 1 | ≥ 90 | 6 nM | 10 to 50 | 80 to 90 |  |  |  |  |  |  | 
2 | CC(C)Oc1cc2c(cc1NC(=O)c1cnn3cccnc13)CN(C1CCN(CC3CCN(c4cc5c(cc4F)C(=O)N(C4CCC(=O)NC4=O)C5=O)CC3)CC1)C2=O (centres unmarked) [Example 13] | 10 to 50 | ≥ 90 | < 1 | ≥ 90 | C (C represents a DC90 value ≥25.0 nM and <50 nM) | ≥ 100 | ≥ 90 |  |  |  |  |  |  | 
3 | O=C1CCC(N2Cc3cc(N4CCC(CN5CCC(N6Cc7cc(NC(=O)c8cnn9cccnc89)c(OCC8CC8)cc7C6=O)CC5)CC4)ccc3C2=O)C(=O)N1 (centres unmarked) [Example 22] | < 10 | ≥ 90 | < 1 | 80 to 90 | A (A represents a DC90 value <10.0 nM) | 10 to 50 | 70 to 80 |  |  |  |  |  |  | 
4 | O=C1CCC(N2C(=O)c3ccc(N4CCC(CN5CCC(N6Cc7cc(NC(=O)c8cnn9cccnc89)c(N8CCOCC8)cc7C6=O)CC5)CC4)cc3C2=O)C(=O)N1 (centres unmarked) [Example 31] |  | ≥ 90 | 1 to 5 | ≥ 90 | B (B represents a DC90 value ≥10.0 nM and <25.0 nM) |  |  | 80 to 90 | < 10 | ≥ 100 |  |  |  | 
5 | CC(C)Oc1cc2c(cc1NC(=O)c1cnn3cccnc13)CN(C1CCN(CC3(F)CN(c4ccc5c(c4)C(=O)N(C4CCC(=O)NC4=O)C5=O)C3)CC1)C2=O (centres unmarked) [Example 57, N-(2-(1-((1-(2-(2,6-dioxopiperidin-3-yl)-1,3-dioxoisoindolin-5-yl)-3-fluoroazetidin-3-yl)methyl)piperidin-4-yl)-6-isopropoxy-1-oxoisoindolin-5-yl)pyrazolo[1,5-a]pyrimidine-3-carboxamide] |  |  | < 1 | ≥ 90 | A (A represents a DC90 value <10.0 nM) |  |  | ≥ 90 | 10 to 50 |  | 70 to 80 | 10 to 50 | ≥ 90 | 50 to 100
6 | CC(C)Oc1cc2c(cc1NC(=O)c1cnn3cccnc13)CN(C1CCN(CC3(F)CCN(c4ccc5c(c4)C(=O)N(C4CCC(=O)NC4=O)C5=O)CC3)CC1)C2=O (centres unmarked) [Example 58] |  |  | 1 to 5 | ≥ 90 | B (B represents a DC90 value ≥10.0 nM and <25.0 nM) |  |  | ≥ 90 | 10 to 50 |  |  |  |  | 
7 | CC(C)Oc1cc2c(cc1NC(=O)c1cnn3cccnc13)CN([C@H]1CC[C@H](N3CCN(c4ccc5c(c4)C(=O)N(C4CCC(=O)NC4=O)C5=O)CC3)CC1)C2=O (some centres unmarked) [Example 66] | 10 to 50 | ≥ 90 | 1 to 5 | ≥ 90 | A (A represents a DC90 value <10.0 nM) | 50 to 100 | 70 to 80 |  |  |  |  |  |  | 
8 | CC(C)Oc1cc2c(cc1NC(=O)c1cnn3cccnc13)CN(C1CCN(C(C)(C)C3CCN(c4ccc5c(c4)C(=O)N(C4CCC(=O)NC4=O)C5=O)CC3)CC1)C2=O (centres unmarked) [Example 82] |  |  | < 1 | ≥ 90 | A (A represents a DC90 value <10.0 nM) |  |  | ≥ 90 | < 10 |  | 70 to 80 | 10 to 50 | ≥ 90 | 10 to 50
9 | CC(C)(C1CCN(c2ccc3c(c2)C(=O)N(C2CCC(=O)NC2=O)C3=O)CC1)N1CCC(N2Cc3cc(NC(=O)c4cnn5cccnc45)c(OCC4CC4)cc3C2=O)CC1 (centres unmarked) [Example 87] |  |  | 5 to 10 | 80 to 90 | D (D represents a DC90 value ≥50 nM) |  |  | ≥ 90 | 50 to 100 |  |  |  |  | 
10 | O=C1CCC(N2C(=O)c3ccc(N4CCC(F)(CN5CCC(N6Cc7cc(NC(=O)c8cnn9cccnc89)c(OCC8CC8)cc7C6=O)CC5)CC4)cc3C2=O)C(=O)N1 (centres unmarked) [Example 88] |  |  | < 1 | ≥ 90 | A (A represents a DC90 value <10.0 nM) |  |  | 80 to 90 | 50 to 100 |  | 70 to 80 | 10 to 50 |  | 
11 | CC(C)Oc1cc2c(cc1NC(=O)c1cnn3cccnc13)CN([C@H]1CCN(CC3CCN(c4ccc5c(c4)C(=O)N(C4CCC(=O)NC4=O)C5=O)CC3)C[C@@H]1F)C2=O (some centres unmarked) [Example 91] |  |  | 1 to 5 | ≥ 90 | B (B represents a DC90 value ≥10.0 nM and <25.0 nM) |  |  | ≥ 90 | 10 to 50 |  |  |  |  | 
12 | O=C1CCC(N2C(=O)c3ccc(N4CCN(CCN5CCC([C@H](F)CN6Cc7cc(NC(=O)c8cnn9cccnc89)c(N8CCOCC8)cc7C6=O)CC5)CC4)cc3C2=O)C(=O)N1 (some centres unmarked) [Example 93] |  |  | < 1 | ≥ 90 | A (A represents a DC90 value <10.0 nM) |  |  | ≥ 90 | 10 to 50 |  |  |  |  | 
13 | O=C1CCC(N2C(=O)c3ccc(N4CCC(CN5CC[C@H](N6Cc7cc(NC(=O)c8cnn9cccnc89)c(N8CCOCC8)cc7C6=O)[C@@H](F)C5)CC4)cc3C2=O)C(=O)N1 (some centres unmarked) [Example 94] |  |  | 1 to 5 | ≥ 90 | A (A represents a DC90 value <10.0 nM) |  |  | 70 to 80 | 10 to 50 |  |  |  |  | 
14 | O=C1CCC(N2C(=O)c3ccc(N4CC(CN5CCC(N6Cc7cc(NC(=O)c8cnn9cccnc89)c(N8CCC(N9CCC9)CC8)cc7C6=O)CC5)C4)cc3C2=O)C(=O)N1 (centres unmarked) [Example 98] |  |  | 5 to 10 | 70 to 80 | D (D represents a DC90 value ≥50 nM) |  |  | ≥ 90 | 10 to 50 |  |  |  |  | 
15 | O=C1CCC(N2C(=O)c3ccc(N4CCC(CN5CCC(n6cc7cc(NC(=O)c8cnn9cc(Cl)cnc89)c(OCC8CC8)cc7n6)CC5)CC4)cc3C2=O)C(=O)N1 (centres unmarked) [Example 128] |  |  |  |  |  |  |  | ≥ 90 | 10 to 50 |  | 70 to 80 | 10 to 50 | 80 to 90 | 10 to 50
16 | O=C1CCC(N2C(=O)c3ccc(N4CCC(F)(CN5CCC(n6cc7cc(NC(=O)c8cnn9cccnc89)c(OCC8CC8)cc7n6)CC5)CC4)cc3C2=O)C(=O)N1 (centres unmarked) [Example 166] |  |  | 5 to 10 | ≥ 90 | C (C represents a DC90 value ≥25.0 nM and <50 nM) |  |  | ≥ 90 | 10 to 50 |  |  |  |  | 
17 | CC(C)(O)c1cc2nn(C3CCN(CC4CN(c5ccc6c(c5)C(=O)N(C5CCC(=O)NC5=O)C6=O)C4)CC3)cc2cc1NC(=O)c1cnn2cccnc12 (centres unmarked) [Example 392] |  |  |  |  |  |  |  | 70 to 80 | 50 to 100 |  |  |  |  | 
18 | O=C1CCC(N2C(=O)c3ccc(CCN4CCC(N5Cc6cc(NC(=O)c7cnn8cccnc78)c(N7CCOCC7)nc6C5=O)CC4)cc3C2=O)C(=O)N1 (centres unmarked) [Example 405] |  |  |  |  |  |  |  | 70 to 80 | ≥ 100 |  |  |  |  | 
19 | O=C1CCC(N2C(=O)c3ccc(N4CC(CN5CCC(N6Cc7cc(NC(=O)c8cnn9cccnc89)c(N8CCOCC8)nc7C6=O)CC5)C4)cc3C2=O)C(=O)N1 (centres unmarked) [Example 406] |  |  |  |  |  |  |  | < 70 | 50 to 100 |  |  |  |  | 
